Test results published in ChEMBL document CHEMBL6103633 (J Med Chem, 2025).
Active and inactive are the calls of the source. The calls are words filed in the database; no cut-off is given here.

Columns and labels:
[1] = target: T1, Ornithine decarboxylase (Homo sapiens) (UniProt P11926); test: Inhibition of full length C-terminal his-6 tagged human ODC extracted from Escherichia coli BL21 (DE3) cells at 50 uM incubated for 30 mins by liquid scintillation analysis relative to control
T1 sequence (whole entry): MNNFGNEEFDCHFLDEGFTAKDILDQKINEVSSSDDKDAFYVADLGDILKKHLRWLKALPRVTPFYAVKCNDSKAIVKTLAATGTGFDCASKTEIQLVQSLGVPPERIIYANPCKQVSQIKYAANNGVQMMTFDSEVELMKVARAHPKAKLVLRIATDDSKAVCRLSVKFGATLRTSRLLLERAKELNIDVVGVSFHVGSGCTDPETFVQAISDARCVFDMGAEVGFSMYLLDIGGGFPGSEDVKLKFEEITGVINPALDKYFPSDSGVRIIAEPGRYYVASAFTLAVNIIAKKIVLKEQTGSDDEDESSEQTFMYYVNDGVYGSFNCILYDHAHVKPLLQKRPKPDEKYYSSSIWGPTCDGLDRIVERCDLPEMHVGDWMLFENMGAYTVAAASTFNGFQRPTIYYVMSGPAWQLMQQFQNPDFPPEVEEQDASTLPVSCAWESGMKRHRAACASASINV

[2] = target: T1, Ornithine decarboxylase (Homo sapiens); test: Inhibition of ODC in human Kelly cells at 500 uM incubated for 2 hrs by liquid scintillation analysis; type: cell-based
[3] = target: T1, Ornithine decarboxylase (Homo sapiens); test: Inhibition of ODC in human Kelly cells assessed as reduction in spermidine level at 500 microM incubated for 20 min by HPLC analysis; type: cell-based
[4] = target: T1, Ornithine decarboxylase (Homo sapiens); test: Inhibition of human ODC in human Kelly cells assessed as reduction in spermine level at 500 microM incubated for 20 min by HPLC analysis; type: cell-based
[5] = target: T1, Ornithine decarboxylase (Homo sapiens); test: Inhibition of human ODC in human Kelly cells assessed as effect on putrescine level at 500 microM incubated for 20 min by HPLC analysis; type: cell-based
[6] = Dissociation constant, pKa of the compound; type: physicochemical
[7] = Cytotoxicity against Normal primary human neonatal fibroblast cell at 500 uM incubated for 72 hrs by SRB assay relative to control; type: toxicity, cell-based

inhibition [2]	inhibition [3]	inhibition [4]	inhibition [5]	Compound	also measured
				NOCC1CNC1	inhibition [1]: 0%
Active	Active	Active	inactive	NCCC[C@](N)(C(=O)O)C(F)F	
				Cc1ncc(COP(=O)(O)O)c(/C=N/OCCCN)c1O	pKa [6]: ~5.9
Active	Active	Active	inactive	NOCC1(F)CCNC1 (racemic)	
				NOC[C@H]1CCCNC1	Activity [7]: 0%
Active	Active	Active	inactive	NCCCON	
				NOC[C@@H]1CCCNC1	Activity [7]: 0%
